≈ marks a conversion by molar mass, not a printed value. Where two headings read alike, the source gives them in different places. Marks after values point to notes of the source that are not given here.

Assay [1] can be described thus: Antifungal assay, mycelium growth on PDA containing the chemical. To be noted: for Antifungal index (%) / IC90 / IC50: L. betulina; for IC90 / IC50: Table 5, mean ± SE (n = 5), combinations at 1:1 ratio in molarities; for IC50: read-out: IC50.
Assay in assay [2]: as above
Particulars: for IC90 / IC50: Table 5, mean ± SE (n = 5), combinations at 1:1 ratio in molarities; for IC50: read-out: IC50.

Assay in assay [3]: as above
Particulars: G. trabeum, Table 1.

Assay in assay [4]: as above
To be noted: T. versicolor, Table 1.

The nature of assay [5]: MIC and MFC determination on PDA. Particulars: L. sulphureus.
Assay [6] in a line: MIC and MFC determination on PDA. Particulars: L. betulina.
A short description of assay [7]: Antifungal activity on paper (CNS 2690, TAPPI T487 cm-93). Particulars: C. globosum, 14 days.
Assay in assay [8]: as above
Particulars: A. terreus, 14 days.

Assay in assay [9]: as above
Particulars: A. niger, 14 days.

Setting [10] is: L. sulphureus, 100 μg/ml, Table 1.
Setting [11] is: 100 μg/ml, Table 4, mean ± SE (n = 5).
[12] abbreviates: L. sulphureus, 100 μg/ml, Table 4, mean ± SE (n = 5).

On to `Cc1cc(C(C)(C)C)c(O)c(C(C)(C)C)c1` [BHT, Butylated hydroxyltoluene, reference compound], for which the “Antifungal index (%)” value in assay [1] (100 μg/ml, Table 1) is 16 ± 3.4%; in assay [2] (setting [10]), 21 ± 5.6%; in assay [3] (100 μg/ml), 0 ± 0%; in assay [4] (100 μg/ml), 23 ± 2.6%.

`O=C(O)CN(CCN(CC(=O)O)CC(=O)O)CC(=O)O` [EDTA, diaminoethanetetraacetic acid]: the Antifungal index in assay [1] (Lenzites betulina, 50 μg/ml, Example 5) stood at 90%; in assay [2] (Laetiporus sulphureus, 50 μg/ml, Example 5) it was 10%.

By IC90 is commonly meant the concentration needed for an effect of 90%. The IC50 is the concentration at which inhibition is half-maximal. By MIC is commonly meant the least concentration at which growth counts as inhibited. Read a high MIC as a need for much substance. For the compound `C=CCc1ccc(O)c(OC)c1` [Eugenol, eugenol], the “Antifungal index (%)” value is 100 ± 0.0^a % in [1] (setting [11]); 100% in assay [1] (100 μg/ml, Table 4, mean ± SE (n = 5), listed as eugenol); 100 ± 0.0^a % in assay [2] (setting [12]); 100% in assay [2] (L. sulphureus, 100 μg/ml, Table 4, mean ± SE (n = 5), listed as eugenol). Besides, the IC90 in [1] amounted to 0.65 ± 0.05 mM; in assay [2] (L. sulphureus), 0.52 ± 0.01 mM. Also, the values for the IC50 in assay [1] and in assay [2] (L. sulphureus) were 0.37 mM and 0.25 mM, respectively. This compound also had an Antifungal index in assay [2] (L. sulphureus, single compound at 0.17 mM) of 24%. Further, the “MFC” value is 650 µM (≈ 107 µg/mL) in [5] and 700 µM (≈ 115 µg/mL) in assay [6]. The figures for the “MIC” value in [5] and in assay [6] were 650 µM (≈ 107 µg/mL) and 700 µM (≈ 115 µg/mL), respectively.

For the compound `CCCC1COC(Cn2cncn2)(c2ccc(Cl)cc2Cl)O1` (stereo not drawn) [Propiconazole, propiconazole], the “Antifungal index (%)” value was 100 ± 0% in assay [1] (1 μg/ml (propiconazole), Table 1); 100% in [1] (1 μg/ml (propiconazole), Table 1, listed as propiconazole); 100 ± 0.0^a % in assay [1] (1 μg/ml (propiconazole), Table 4, mean ± SE (n = 5)); “completely inhibited” in assay [1] (1 μg/ml (propiconazole), Table 4, mean ± SE (n = 5), listed as propiconazole); 100 ± 0% in assay [2] (L. sulphureus, 1 μg/ml (propiconazole), Table 1); 100% in assay [2] (L. sulphureus, 1 μg/ml (propiconazole), Table 1, listed as propiconazole). The “Antifungal index (%)” value was 100 ± 0.0^a % in assay [2] (L. sulphureus, 1 μg/ml (propiconazole), Table 4, mean ± SE (n = 5)); “completely inhibited” in assay [2] (L. sulphureus, 1 μg/ml (propiconazole), Table 4, mean ± SE (n = 5), listed as propiconazole); 52 ± 3.7% in [3] (1 μg/ml (propiconazole)); 92 ± 0.6% in assay [4] (1 μg/ml (propiconazole)).

As to `CCCOC(=O)c1cc(O)c(O)c(O)c1` [Propyl gallate, propyl gallate], the “Antifungal index (%)” value in assay [1] (100 μg/ml, Table 1) is on record as 1 ± 1.9%; in assay [2] (setting [10]), 0 ± 0%; in assay [3] (100 μg/ml), 2 ± 0.6%; in assay [4] (100 μg/ml), 0 ± 0%. The Percent inhibition ratio was 0 ± 0% in [7] (100 μg/cm^2 on filter paper); “did not show any antifungal activity” in assay [7] (100 μg/cm^2 on filter paper, listed as propyl gallate); 100 ± 0% in assay [7] (400 μg/cm^2 on filter paper); 100% in assay [7] (400 μg/cm^2 on filter paper, listed as propyl gallate); 0 ± 0% in assay [8] (100 μg/cm^2 on filter paper); 0 ± 0% in assay [8] (400 μg/cm^2 on filter paper). For the same compound, the Percent inhibition ratio in assay [9] (100 μg/cm^2 on filter paper) and in assay [9] (400 μg/cm^2 on filter paper) was 0 ± 0% in each case.

As to `O=c1c(O)c(-c2ccc(O)c(O)c2)oc2cc(O)cc(O)c12` [Quercetin, quercetin], the “Antifungal index (%)” value is on record as 0 ± 0.0^b % in assay [1] (setting [11]); “did not express antifungal activities” in [1] (100 μg/ml, Table 4, mean ± SE (n = 5), listed as quercetin); 0 ± 0.0^c % in assay [2] (setting [12]); “did not express antifungal activities” in assay [2] (L. sulphureus, 100 μg/ml, Table 4, mean ± SE (n = 5), listed as quercetin). Further, the IC90 in assay [1] and in assay [2] (L. sulphureus) was more than 100 mM in each case. In addition, the values for the IC50 in assay [1] and in assay [2] (L. sulphureus) were more than 100 mM and 64 ± 0.25 mM, respectively.

For the compound catechin, the “Antifungal index (%)” value was 3 ± 1.5^b % in assay [1] (setting [11]); “did not express antifungal activities” in [1] (100 μg/ml, Table 4, mean ± SE (n = 5), listed as catechin); 5 ± 1.8^b % in [2] (setting [12]); “did not express antifungal activities” in assay [2] (L. sulphureus, 100 μg/ml, Table 4, mean ± SE (n = 5), listed as catechin). In addition, the IC90 in assay [1] is more than 100 mM; in [2] (L. sulphureus), 80 ± 0.14 mM. The half-maximal inhibitory concentration (IC50) is more than 100 mM in assay [1] and 40 ± 0.12 mM in assay [2] (L. sulphureus).

The values are drawn from US20080132569A1, “Antifungal Compositions for Inhibiting Growth of Wood Decay Fungi and Use Thereof” (priority 2006, published 2008).
